Measurements published in US9107411B2, “Indolecarboxamides and benzimidazolecarboxamides as insecticides and acaricides” (BAYER INTELLECTUAL PROPERTY GMBH, priority 2011, dated 2015).
Read-outs that look alike come from different tables or passages of the source.

Assays:
[1] = test system: Ctenocephalides felis; assay: Ctenocephalides felis oral (CTECFE); format: in vivo; settings: application rate 100 ppm in citrated cattle blood; after 2 days
Protocol: Ctenocephalides felis Oral ([…]) Solvent: 1 part by weight of dimethyl sulphoxide For the purpose of preparing an appropriate active ingredient formulation, 10 mg of active ingredient are mixed with 0.5 ml of dimethyl sulphoxide. A portion of the concentrate is diluted with citrated cattle blood, and the desired concentration is prepared. About 20 unfed adult fleas (Ctenocephalides felis) are placed into a chamber which is closed at the top and bottom with gauze. A metal cylinder whose bottom end is closed with Parafilm is placed onto the chamber. The cylinder contains the blood/active ingredient formulation, which can be imbibed by the fleas through the Parafilm membrane. After 2 days, the kill in % is determined 100% means that all of the fleas have been killed; 0% means that none of the fleas have been killed.

[2] = logP (HPLC-MS); format: physicochemical
[3] = test system: Lucilia cuprina larvae; assay: Lucilia cuprina test (LUCICU); format: in vivo; settings: application rate 100 ppm; treated horse meat; after 2 days
Protocol: Lucilia cuprina Test (LUCICU) Solvent: dimethyl sulphoxide To prepare an appropriate active ingredient formulation, 10 mg of active ingredient are mixed with 0.5 ml of dimethyl sulphoxide and the concentrate is diluted with water to the desired concentration. Vessels containing horse meat treated with the active ingredient formulation of the desired concentration are populated with about 20 Lucilia cuprina larvae. After 2 days, the kill in % is determined. 100% means that all of the larvae have been killed; 0% means that none of the larvae have been killed.

[4] = test system: Tetranychus urticae; assay: Tetranychus test, OP-resistant (TETRUR spray treatment); format: in vivo; settings: bean leaf discs, after 6 days
Protocol: Tetranychus Test, OP-Resistant (TETRUR Spray Treatment)
Solvent: 78.0 parts by weight of acetone • • 1.5 parts by weight of dimethylformamide
Emulgator: 0.5 part by weight of alkylaryl polyglycol ether
To produce an appropriate active ingredient formulation, 1 part by weight of active ingredient is mixed with the stated amounts of solvent and emulsifier, and the concentrate is diluted with emulsifier-containing water to the desired concentration.
Discs of bean leaves (Phaseolus vulgaris) infested by all stages of the red spider mite (Tetranychus urticae) are sprayed with an active ingredient formulation of the desired concentration.
After 6 days, the efficacy in % is determined. 100% means that all of the spider mites have been killed; 0% means that none of the spider mites have been killed.

[5] = test system: Phaedon cochleariae; assay: Phaedon test (PHAECO spray treatment); format: in vivo; settings: application rate 100 g/ha, Chinese cabbage leaf discs, after 7 days; for pest or weed control at 100 g/ha: Phaedon cochleariae, foliar, 168 h, read-out: efficacy in %
Protocol: Phaedon Test ([…] Spray Treatment) Solvent: 78.0 parts by weight of acetone • • 1.5 parts by weight of dimethylformamide Emulsifier: 0.5 part by weight of alkylaryl polyglycol ether To produce an appropriate active ingredient formulation, 1 part by weight of active ingredient is mixed with the stated amounts of solvent and emulsifier, and the concentrate is diluted with emulsifier-containing water to the desired concentration. Leaf discs of Chinese cabbage (Brassica pekinensis) are sprayed with an active ingredient formulation of the desired concentration and, after drying, populated with larvae of the mustard beetle (Phaedon cochleariae). After 7 days, the efficacy in % is determined. 100% means that all of the beetle larvae have been killed; 0% means that none of the beetle larvae have been killed.

[6] = test system: Boophilus microplus; assay: Boophilus microplus test (BOOPMI injection); format: in vivo; settings: application rate 20 μg/animal; injected into the abdomen; after 7 days
Protocol: Boophilus microplus Test (BOOPMI Injection) Solvent: dimethyl sulphoxide To prepare an appropriate active ingredient formulation, 10 mg of active ingredient are mixed with 0.5 ml of solvent and the concentrate is diluted with solvent to the desired concentration. The active ingredient solution is injected into the abdomen (Boophilus microplus), and the animals are transferred into dishes and stored in a climate-controlled room. After 7 days, the efficacy in % is determined. The activity is assessed by laying of fertile eggs. 100% means that none of the ticks has laid any fertile eggs.

[7] = test system: Spodoptera frugiperda; assay: Spodoptera frugiperda test (SPODFR spray treatment); format: in vivo; settings: application rate 100 g/ha; maize leaf discs; after 7 days
Protocol: Spodoptera frugiperda Test (SPODFR Spray Treatment) Solvent: 78.0 parts by weight of acetone • • 1.5 parts by weight of dimethylformamide To produce an appropriate active ingredient formulation, 1 part by weight of active ingredient is mixed with the stated amounts of solvent and emulsifier, and the concentrate is diluted with emulsifier-containing water to the desired concentration. Leaf discs of maize (Zea mays) are sprayed with an active ingredient formulation of the desired concentration and, after drying, populated with caterpillars of the armyworm (Spodoptera frugiperda). After 7 days, the efficacy in % is determined 100% means that all of the caterpillars have been killed; 0% means that none of the caterpillars have been killed.

[8] = HPLC, reversed-phase column (C18), acidic range pH 2.7, acetonitrile (0.1% formic acid)/water gradient, 43° C., calibration with unbranched alkan-2-ones
[9] = HPLC, reversed-phase column (C18), 43° C., acidic range pH 2.7, EEC directive 79/831 Annex V.A8, two values = both regioisomers (G = N), read-out: log p
[10] = HPLC, reversed-phase column (C18), 43° C., acidic range pH 2.7, EEC directive 79/831 Annex V.A8, two values = both regioisomers (G = N)

CCn1c(C(=O)NC(c2cccc(Cl)c2)C(F)(F)F)cc2cc(C(=O)NC3CC3)c(Cl)cc21 (stereo not shown) [Compound 2]
efficacy (kill in %) [1]: 95% | log p [2, 8]: 3.65 | efficacy (kill in %) [3]: 100% | efficacy in % ([4]; application rate 500 g/ha): 100% | efficacy in % [5]: 100% | efficacy (laying of fertile eggs) [6]: 100% | efficacy in % [7]: 100%

CCn1c(C(=O)NC(c2cccc(C(F)(F)F)c2)C(F)(F)F)cc2cc(C(=O)NC(C)CF)c(Cl)cc21 (stereo not shown) [Compound 8]
efficacy (kill in %) [1]: 95% | log p [2, 8]: 3.88 | efficacy (kill in %) [3]: 100% | efficacy in % [5]: 100% | efficacy (laying of fertile eggs) [6]: 100% | efficacy in % [7]: 100%

CCn1c(C(=O)NC(c2cccc(C(F)(F)F)c2)C(F)(F)F)cc2cc(C(=O)NC(CF)CF)c(Cl)cc21 (stereo not shown) [Compound 11]
efficacy (kill in %) [1]: 80% | log p [2, 8]: 3.86 | efficacy (kill in %) [3]: 100% | efficacy in % [5]: 100% | efficacy (laying of fertile eggs) [6]: 100%

CCn1c(C(=O)NC(c2cccc(C(F)(F)F)c2)C(F)(F)F)cc2cc(C(=O)NC3(C(=O)OC)CC3)c(Cl)cc21 (stereo not shown) [Compound 28]
efficacy (kill in %) [1]: 95% | log p [2, 8]: 3.86 | efficacy (kill in %) [3]: 100% | efficacy in % ([4]; application rate 500 g/ha): 100% | efficacy in % [5]: 100% | efficacy (laying of fertile eggs) [6]: 100% | efficacy in % [7]: 83%

C#CC1(NC(=O)c2cc3cc(C(=O)NC(c4cccc(C(F)(F)F)c4)C(F)(F)F)n(CC)c3cc2Cl)CC1 (stereo not shown) [Compound 32]
efficacy (kill in %) [1]: 100% | log p [2, 8]: 3.86 | efficacy (kill in %) [3]: 100% | efficacy in % ([4]; application rate 100 g/ha): 100% | efficacy in % [5]: 100% | efficacy (laying of fertile eggs) [6]: 100%

CCn1c(C(=O)NC(c2cccc(C(F)(F)F)c2)C(F)(F)F)cc2cc(C(=O)NC3(C#N)CCC3)c(Cl)cc21 (stereo not shown) [Compound 36]
efficacy (kill in %) [1]: 100% | log p [2, 8]: 4.09 | efficacy (kill in %) [3]: 95% | efficacy in % ([4]; application rate 100 g/ha): 100% | efficacy in % [5]: 100% | efficacy (laying of fertile eggs) [6]: 100% | efficacy in % [7]: 100%

CCn1c(C(=O)NC(c2cccc(Cl)c2)C(F)(F)F)cc2cc(C(=O)NC3(C#N)CC3)c(Cl)cc21 (stereo not shown) [Compound 39]
efficacy (kill in %) [1]: 100% | log p [2, 8]: 3.67 | efficacy (kill in %) [3]: 100% | efficacy in % ([4]; application rate 100 g/ha): 100% | efficacy in % [5]: 100% | efficacy (laying of fertile eggs) [6]: 100% | efficacy in % [7]: 100%

CCn1c(C(=O)NC(c2cccc(Br)c2)C(F)(F)F)cc2cc(C(=O)NC3(C#N)CC3)c(Cl)cc21 (stereo not shown) [Compound 41]
efficacy (kill in %) [1]: 100% | log p [2, 8]: 3.75 | efficacy (kill in %) [3]: 100% | efficacy in % ([4]; application rate 100 g/ha): 100% | efficacy (laying of fertile eggs) [6]: 100% | efficacy in % [7]: 100%

Cn1c(C(=O)NC(c2cccc(Br)c2)C(F)(F)F)cc2cc(C(=O)NC3(C#N)CC3)c(Cl)cc21 (stereo not shown) [Compound 48]
efficacy (kill in %) [1]: 100% | log p [2, 8]: 3.39 | efficacy (kill in %) [3]: 100% | efficacy in % ([4]; application rate 100 g/ha): 100% | efficacy in % [5]: 100% | efficacy (laying of fertile eggs) [6]: 100% | efficacy in % [7]: 100%

CCn1c(C(=O)NC(c2cccc(C(F)(F)F)c2)C(F)(F)F)c(C#N)c2cc(C(=O)NC3(C#N)CC3)c(Cl)cc21 (stereo not shown) [Compound 279, 6-chloro-3-cyano-N5-(1-cyanocyclopropyl)-1-ethyl-N2-{2,2,2-trifluoro-1-[3-(trifluoromethyl)phenyl]ethyl}-1H-indole-2,5-dicarboxamide]
chromatographic logP [2, 9]: 3.45 | chromatographic logP ([2]; HPLC-MS): 3.45 | efficacy in % ([4]; application rate 100 g/ha): 100% | pest or weed control at 100 g/ha [5]: 100% | efficacy in % [7]: 100%

N#CC1(NC(=O)c2cc3cc(C(=O)NC(c4cccc(C(F)(F)F)c4)C(F)(F)F)n(Cc4ccccc4)c3cc2Cl)CC1 (stereo not shown) [Compound 284]
log p [2, 10]: 4.07 | efficacy in % ([4]; application rate 100 g/ha): 100% | efficacy in % [5]: 100% | efficacy in % [7]: 100%

CCOCn1c(C(=O)NC(c2cccc(C(F)(F)F)c2)C(F)(F)F)cc2cc(C(=O)NC3(C#N)CC3)c(Cl)cc21 (stereo not shown) [Compound 287]
log p [2, 10]: 3.70 | efficacy in % ([4]; application rate 100 g/ha): 100% | efficacy in % [5]: 100% | efficacy in % [7]: 100%

CCn1c(C(=O)NC(c2ccc(F)c(F)c2)C(F)(F)F)cc2cc(C(=O)NC3(C#N)CC3)c(C)cc21 (stereo not shown) [Compound 292]
log p [2, 10]: 3.48 | efficacy in % ([4]; application rate 100 g/ha): 100% | efficacy in % [5]: 100% | efficacy in % [7]: 100%

CCn1c(C(=O)NC(c2cc(F)cc(Cl)c2)C(F)(F)F)cc2cc(C(=O)NC3(C#N)CC3)c(C)cc21 (stereo not shown) [Compound 293]
log p [2, 10]: 3.85 | efficacy in % ([4]; application rate 100 g/ha): 100% | efficacy in % [5]: 100% | efficacy in % [7]: 100%

CCn1c(C(=O)NC(c2cc(Cl)c(F)c(Cl)c2)C(F)(F)F)cc2cc(C(=O)NC3CC3)c(C)cc21 (stereo not shown) [Compound 296]
log p [2, 10]: 4.16 | efficacy in % ([4]; application rate 100 g/ha): 100% | efficacy in % [5]: 100% | efficacy in % [7]: 100%

CCn1c(C(=O)NC(c2ccc(Cl)c(Cl)c2)C(F)(F)F)cc2cc(C(=O)NC3CC3)c(C)cc21 (stereo not shown) [Compound 297]
log p [2, 10]: 3.99 | efficacy in % ([4]; application rate 100 g/ha): 100% | efficacy in % [5]: 100% | efficacy in % [7]: 100%

CCn1c(C(=O)NC(c2cc(F)cc(Cl)c2)C(F)(F)F)cc2cc(C(=O)NC3CC3)c(C)cc21 (stereo not shown) [Compound 298]
log p [2, 10]: 3.77 | efficacy in % ([4]; application rate 100 g/ha): 100% | efficacy in % [5]: 100% | efficacy in % [7]: 100%

N#CC1(NC(=O)c2cc3cc(C(=O)NC(c4cccc(C(F)(F)F)c4)C(F)(F)F)n(C4CC4)c3cc2Cl)CC1 (stereo not shown) [Compound 302, 6-chloro-N^5-(1-cyanocyclopropyl)-1-cyclopropyl-N^2-{2,2,2-trifluoro-1-[3-(trifluoromethyl)phenyl]ethyl}-1H-indole-2,5-dicarboxamide]
chromatographic logP [2, 9]: 3.6 | chromatographic logP ([2]; HPLC-MS): 3.59 | efficacy in % ([4]; application rate 100 g/ha): 100% | pest or weed control at 100 g/ha [5]: 100% | efficacy in % [7]: 100%

CCn1c(C(=O)NC(c2ccc(F)c(C(F)(F)F)c2)C(F)(F)F)cc2cc(C(=O)NC3CCC3)c(C)cc21 (stereo not shown) [Compound 304]
log p [2, 10]: 4.24 | efficacy in % ([4]; application rate 500 g/ha): 100% | efficacy in % [5]: 100% | efficacy in % [7]: 100%

CCn1c(C(=O)NC(c2ccc(F)c(C(F)(F)F)c2)C(F)(F)F)cc2cc(C(=O)NC(C)C)c(C)cc21 (stereo not shown) [Compound 305]
log p [2, 10]: 4.16 | efficacy in % ([4]; application rate 100 g/ha): 100% | efficacy in % [5]: 100% | efficacy in % [7]: 100%

CCn1c(C(=O)NC(c2ccc3c(c2)OC(F)(F)O3)C(F)(F)F)cc2cc(C(=O)NC3(C#N)CC3)c(C)cc21 (stereo not shown) [Compound 308]
log p [2, 10]: 3.80 | efficacy in % ([4]; application rate 100 g/ha): 90% | efficacy in % [5]: 100% | efficacy in % [7]: 100%

CCN(CC)C(=O)c1cc2cc(C(=O)NC(c3ccc(F)c(Cl)c3)C(F)(F)F)n(CC)c2cc1C (stereo not shown) [Compound 320]
log p [2, 10]: 4.35 | efficacy in % ([4]; application rate 100 g/ha): 100% | efficacy in % [5]: 100% | efficacy in % [7]: 100%
